Earlier results as cited in patent US20240158750A1, “STROMA-FREE NK CELL DIFFERENTIATION FROM HUMAN PLURIPOTENT STEM CELLS” (The Children's Medical Center Corporation, priority 2021, published 2024).

What was measured:
G9a/GLP = target: T1, G9a/GLP (Homo sapiens, UniProt Q96KQ7); settings: SAM-competitive; cited from earlier work
T1 sequence (Q96KQ7 1-1210): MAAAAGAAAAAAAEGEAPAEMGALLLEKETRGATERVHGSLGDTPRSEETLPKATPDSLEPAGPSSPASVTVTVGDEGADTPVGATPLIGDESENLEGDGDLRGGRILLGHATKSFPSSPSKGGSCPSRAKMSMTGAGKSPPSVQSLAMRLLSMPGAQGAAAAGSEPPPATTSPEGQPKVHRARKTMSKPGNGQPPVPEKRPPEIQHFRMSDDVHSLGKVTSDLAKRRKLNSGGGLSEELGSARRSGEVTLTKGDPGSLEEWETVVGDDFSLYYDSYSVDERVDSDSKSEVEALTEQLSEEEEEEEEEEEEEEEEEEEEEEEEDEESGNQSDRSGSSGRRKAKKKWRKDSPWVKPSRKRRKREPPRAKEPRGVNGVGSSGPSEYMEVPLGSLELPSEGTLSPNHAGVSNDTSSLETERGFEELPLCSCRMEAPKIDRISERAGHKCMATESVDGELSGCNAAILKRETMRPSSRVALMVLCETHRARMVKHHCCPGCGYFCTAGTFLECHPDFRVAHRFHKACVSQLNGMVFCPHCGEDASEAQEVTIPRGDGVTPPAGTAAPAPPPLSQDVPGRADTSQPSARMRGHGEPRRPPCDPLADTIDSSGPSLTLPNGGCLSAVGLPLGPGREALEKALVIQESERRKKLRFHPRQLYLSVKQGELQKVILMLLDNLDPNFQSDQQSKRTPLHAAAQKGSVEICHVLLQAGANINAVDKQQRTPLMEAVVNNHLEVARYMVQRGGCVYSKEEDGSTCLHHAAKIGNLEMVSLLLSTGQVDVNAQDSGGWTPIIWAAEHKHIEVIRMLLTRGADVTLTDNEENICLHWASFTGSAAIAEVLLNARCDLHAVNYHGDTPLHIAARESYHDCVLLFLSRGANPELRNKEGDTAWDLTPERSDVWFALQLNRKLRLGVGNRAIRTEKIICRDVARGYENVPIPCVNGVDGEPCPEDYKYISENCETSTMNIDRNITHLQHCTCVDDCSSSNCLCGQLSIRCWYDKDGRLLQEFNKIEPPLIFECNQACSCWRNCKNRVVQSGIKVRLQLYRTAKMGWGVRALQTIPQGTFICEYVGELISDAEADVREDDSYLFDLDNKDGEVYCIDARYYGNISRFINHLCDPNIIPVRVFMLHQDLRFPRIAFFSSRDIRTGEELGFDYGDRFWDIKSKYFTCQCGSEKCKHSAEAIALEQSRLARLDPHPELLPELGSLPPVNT

[1] = target: T2, class III isoenzyme SIRT1 (Homo sapiens, UniProt Q96EB6); settings: cited from earlier work
T2 sequence (Q96EB6 1-747): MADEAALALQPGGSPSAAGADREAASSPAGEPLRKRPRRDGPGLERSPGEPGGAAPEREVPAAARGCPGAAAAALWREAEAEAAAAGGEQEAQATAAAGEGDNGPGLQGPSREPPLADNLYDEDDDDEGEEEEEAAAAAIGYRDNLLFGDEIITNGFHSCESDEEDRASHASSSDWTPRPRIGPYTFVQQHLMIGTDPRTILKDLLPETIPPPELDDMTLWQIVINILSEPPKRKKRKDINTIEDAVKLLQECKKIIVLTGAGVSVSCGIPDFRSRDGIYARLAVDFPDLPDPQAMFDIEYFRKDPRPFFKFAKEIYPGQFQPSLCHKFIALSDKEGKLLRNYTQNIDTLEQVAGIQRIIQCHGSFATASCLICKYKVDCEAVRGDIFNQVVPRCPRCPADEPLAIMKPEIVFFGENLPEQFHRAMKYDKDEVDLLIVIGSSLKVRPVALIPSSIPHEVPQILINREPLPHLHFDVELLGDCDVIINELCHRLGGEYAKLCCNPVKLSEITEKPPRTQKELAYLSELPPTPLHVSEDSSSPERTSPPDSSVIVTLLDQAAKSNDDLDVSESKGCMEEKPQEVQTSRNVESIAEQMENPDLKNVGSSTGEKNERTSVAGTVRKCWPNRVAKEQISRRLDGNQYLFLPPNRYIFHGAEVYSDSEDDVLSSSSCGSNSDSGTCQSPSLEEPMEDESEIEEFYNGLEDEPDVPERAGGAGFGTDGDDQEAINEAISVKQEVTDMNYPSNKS

SET8/PreSET7 = SET8/PreSET7 (Homo sapiens, UniProt Q9NQR1); settings: SET8/PreSET7, inactive, ECSD enzymatic assay; cited from earlier work
PKMT G9a = target: T3, PKMT G9a (Homo sapiens, UniProt Q96KQ7); settings: based on Morrison Ki; cited from earlier work
T3 sequence (Q96KQ7 1-1210): T1 sequence (Q96KQ7 1-1210)

PRMT3 = PRMT3 (Homo sapiens, UniProt O60678); settings: PRMT3, inactive, ECSD enzymatic assay; cited from earlier work
Chain of PRMT3 (O60678 whole entry, species assumed): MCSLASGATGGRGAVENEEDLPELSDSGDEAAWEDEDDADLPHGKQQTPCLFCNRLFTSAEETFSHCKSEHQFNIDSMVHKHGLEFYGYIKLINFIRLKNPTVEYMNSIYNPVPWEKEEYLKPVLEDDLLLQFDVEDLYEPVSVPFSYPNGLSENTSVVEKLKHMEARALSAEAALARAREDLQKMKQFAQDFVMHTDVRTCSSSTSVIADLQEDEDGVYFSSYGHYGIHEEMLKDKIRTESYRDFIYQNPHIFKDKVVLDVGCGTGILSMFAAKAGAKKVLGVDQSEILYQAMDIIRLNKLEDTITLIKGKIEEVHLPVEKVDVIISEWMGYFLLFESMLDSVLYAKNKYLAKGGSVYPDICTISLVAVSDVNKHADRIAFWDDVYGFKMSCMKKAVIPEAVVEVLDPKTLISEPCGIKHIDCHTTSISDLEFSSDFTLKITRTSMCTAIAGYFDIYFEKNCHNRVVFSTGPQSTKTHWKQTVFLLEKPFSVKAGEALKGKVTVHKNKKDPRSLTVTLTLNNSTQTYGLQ

SET7/9 = target: T4, SET7/9 (Homo sapiens, UniProt Q8WTS6); settings: SET7/9, inactive, ECSD enzymatic assay; cited from earlier work
T4 sequence (Q8WTS6 1-366): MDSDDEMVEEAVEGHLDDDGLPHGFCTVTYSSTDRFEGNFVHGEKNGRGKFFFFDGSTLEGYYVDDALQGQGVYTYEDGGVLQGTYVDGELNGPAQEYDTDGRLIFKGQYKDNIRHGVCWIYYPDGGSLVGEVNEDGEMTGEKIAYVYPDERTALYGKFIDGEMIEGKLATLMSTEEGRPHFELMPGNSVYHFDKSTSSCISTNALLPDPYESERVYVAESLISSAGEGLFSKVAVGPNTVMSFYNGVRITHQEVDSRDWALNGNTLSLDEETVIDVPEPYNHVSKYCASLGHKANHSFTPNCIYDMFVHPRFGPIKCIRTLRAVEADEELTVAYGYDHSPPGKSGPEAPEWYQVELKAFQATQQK

JMJD2E = target: T5, JMJD2E (Homo sapiens, UniProt B2RXH2); settings: ECSD enzymatic assay, cited from earlier work
T5 sequence (B2RXH2 1-506): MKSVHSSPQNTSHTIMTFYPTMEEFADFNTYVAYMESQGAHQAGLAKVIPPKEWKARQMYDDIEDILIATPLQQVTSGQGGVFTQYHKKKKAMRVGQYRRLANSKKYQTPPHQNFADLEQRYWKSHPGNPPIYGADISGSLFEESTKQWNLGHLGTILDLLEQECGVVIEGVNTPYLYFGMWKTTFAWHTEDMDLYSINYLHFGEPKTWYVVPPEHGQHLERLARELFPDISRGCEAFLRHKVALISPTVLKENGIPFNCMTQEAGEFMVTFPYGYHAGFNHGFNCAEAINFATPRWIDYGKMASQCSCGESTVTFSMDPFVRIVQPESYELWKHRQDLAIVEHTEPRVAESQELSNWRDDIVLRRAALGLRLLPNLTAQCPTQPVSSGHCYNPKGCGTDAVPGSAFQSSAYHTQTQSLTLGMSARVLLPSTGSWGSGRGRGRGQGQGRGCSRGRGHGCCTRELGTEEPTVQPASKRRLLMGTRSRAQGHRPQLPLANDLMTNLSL

Lys27-specific EZH2 = settings: cited from earlier work
G9a = settings: cited from earlier work
Lys4-specific SET7/9 = target: T6, Lys4-specific SET7/9 (Homo sapiens, UniProt Q8WTS6); settings: cited from earlier work
T6 sequence (Q8WTS6 1-366): T4 sequence (Q8WTS6 1-366)

DIM5 = target: T7, DIM5 (Neurospora crassa, UniProt Q8X225); settings: cited from earlier work
T7 sequence (Q8X225 1-331): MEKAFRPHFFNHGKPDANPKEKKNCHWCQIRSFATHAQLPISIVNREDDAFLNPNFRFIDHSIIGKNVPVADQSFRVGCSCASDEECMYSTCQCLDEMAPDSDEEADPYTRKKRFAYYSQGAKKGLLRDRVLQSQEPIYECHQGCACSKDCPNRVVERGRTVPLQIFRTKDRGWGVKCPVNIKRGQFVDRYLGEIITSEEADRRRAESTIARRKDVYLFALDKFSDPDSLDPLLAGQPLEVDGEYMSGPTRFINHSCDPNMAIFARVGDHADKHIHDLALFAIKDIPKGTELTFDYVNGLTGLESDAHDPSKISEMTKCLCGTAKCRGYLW

Lys20-specific PRSET7 = target: T8, Lys20-specific PRSET7 (Homo sapiens, UniProt Q9NQR1); settings: cited from earlier work
T8 sequence (Q9NQR1 1-393): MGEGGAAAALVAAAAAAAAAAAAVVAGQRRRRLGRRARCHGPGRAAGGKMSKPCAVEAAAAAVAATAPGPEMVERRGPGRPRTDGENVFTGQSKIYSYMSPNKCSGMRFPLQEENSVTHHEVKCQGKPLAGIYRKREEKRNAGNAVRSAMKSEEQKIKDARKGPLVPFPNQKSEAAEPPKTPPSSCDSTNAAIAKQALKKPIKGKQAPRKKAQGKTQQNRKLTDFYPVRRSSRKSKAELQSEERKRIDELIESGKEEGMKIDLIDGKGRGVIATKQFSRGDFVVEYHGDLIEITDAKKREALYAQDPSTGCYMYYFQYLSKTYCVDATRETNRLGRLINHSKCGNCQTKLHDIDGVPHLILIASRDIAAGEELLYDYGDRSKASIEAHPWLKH

**Q.** For `COc1ccc(C(=O)Oc2ccc(CCn3c(NC(=O)c4ccc(C(F)(F)F)cc4)nc4cc(C(=O)O)ccc43)cc2)cc1` [BIX-01338], which effective conc. (G9a/GLP) is on record?
**A.** G9a/GLP effective conc. = 15 μM

**Q.** With `CCCCc1nc2cc(/C=C/C(=O)NO)ccc2n1CCN(CC)CC` [SB939 (Pracinostat)] as the molecule, how does the “activity against the class III isoenzyme SIRT1” value [1] read?
**A.** no activity

**Q.** What does the source list for `COc1cc2c(NC3CCN(C)CC3)nc(N3CCCN(C)CC3)nc2cc1OCCOCCN(C)C` [UNC0321]?
**A.** IC50 (SET8/PreSET7): > 40 µM; fold more potent than BIX01294 (PKMT G9a): ~250 fold; IC50 (PRMT3): > 40 µM; IC50 (SET7/9): > 40 µM; selectivity (JMJD2E; G9a over JMJD2E): well as JMJD2E (>1000-fold; IC50 (JMJD2E; JMJD2E, inactive): > 40 µM

**Q.** For Chaetocin, which IC50 (Lys27-specific EZH2) is on record?
**A.** > 90 µM

**Q.** And the IC50 (G9a)?
**A.** 2.5 µM

**Q.** What about the IC50 (Lys4-specific SET7/9) of the same molecule?
**A.** > 90 µM

**Q.** And the IC50 (DIM5)?
**A.** 3 µM

**Q.** And the IC50 (Lys20-specific PRSET7)?
**A.** > 90 µM
